Measured values as given in US5922545A, “In vitro peptide and antibody display libraries” (Affymax Technologies N.V., priority 1997, dated 1999).

Key:
[1] = test system: peptidyl transferase activity of 50S ribosomal subunits; conditions: cited from earlier work
mAb D32.39 [2] = assay: competition binding of radiolabelled polysomes to immobilized mAb D32.39; conditions: wells preincubated with 10 μH dynorphin B peptide for 1 hr at 4° C.
Protocol: FIG. 2. Specific binding of polysomes to mAb D32.39. Radiolabelled polysomes were isolated from reactions programmed with 1.5 μg of HindIII-linearized plasmid pLM138 or pLM142 and bound to microtiter wells containing the immobilized mAb. The recovered mIRNA was quantitated by TCA precipitation. (Panel A) Binding of polysomes containing the D32.39 epitope (closed boxes) or control (open boxes) sequences. (Panel B) Competition binding assay. Microtiter wells were preincubated with polysome buffer in the absence or presence of 10 μH dynorphin B peptide for 1 hr at 4° C. prior to adding 131,000 cpm of polysomes containing the D32.39 epitope (RQFKVVT) (SEQ ID NO:18) or control (VFKRTVQ) (SEQ ID NO:15) sequences.
Dynal beads were prepared according to the manufacturer. Microtiter wells were prepared for polysome binding by incubating each well with mAb D32.39 (5 μg per well) in PBS (10 mM sodium phosphate pH 7.4/120 mM NaCl/2.7 mM KCl) for 1 hr at 37° C., washing with PBS, blocking with PBS/1% nonfat milk for 1 hr at 37° C. and washing again with polysome buffer. Polysomes, as indicated, were incubated with the antibody for 2 hr at 4° C. […]
Specific Binding of Polysomes to mAb D32.39. The fraction of polysomes capable of binding specifically to mAb D32.39 via the nascent peptide was determined. […]

mAb D32.39 [3] = assay: competition binding assay of synthesized peptides for mAb D32.39; conditions: 50 pM tracer peptide containing the D32.39 epitope sequence, IC50 should approximate the Kd, read-out: binding affinity for mAb D32.39 (IC50)
Description: FIG. 6. (SEQ. ID NO: 50-74) Amino acid alignment of selected peptide sequences with dynorphin B. The six-residue D32.39 epitope sequence of dynorphin B and the peptide regions similar to it are shown in the box. A total of 6, 13, 19, and 9 independent clones were sequenced from rounds 2, 3, 4 and 5, respectively. The frequency indicates the number of times each sequence occurred among the clones isolated from each round, and the asterisks indicate identical sequences found in different rounds. Binding affinities for D32.39 were determined by chemically synthesizing the indicated peptide sequences and measuring the IC50 as described in the Experimental Examples.
Peptides were synthesized with an Applied Biosystems model 431A peptide synthesizer using Fmoc-protected amino acids. The peptides were purified to greater than 90% purity by HPLC and confirmed by mass spectroscopy. The competition binding assay was performed and included a low concentration (50 pM) of the tracer peptide containing the D32.39 epitope sequence.
Peptides corresponding to some of the enriched sequences were chemically synthesized, purified and their identity confirmed by mass spectrometry. A competition binding assay was used to estimate their affinity for the mAb D32.39 and under the conditions of the assays the IC50 value should approximate the Kd. […]

[4] = molecular target: iron response element (IRE); conditions: binds as a monomer; read-out: dissociation constant; cited from earlier work

Molecule: MSTSKNAD [cmlA 8-mer peptide]
- inhibitory activity relative to chloramphenicol ([1]; as inhibitory as chloramphenicol): about 50%
- inhibitory activity relative to the cat 5-mer ([1]; more inhibitory than the cat 5-mer): about 5 fold

Molecule: dynorphin B
- blocking of binding of D32.39 epitope polysomes to mAb D32.39 (mAb D32.39 [2]): binding was blocked
- IC50 (mAb D32.39 [3]): 0.29 nM

B1: IREBP: iron response element binding protein (98.4 kDal), RNA-binding protein (protein, UniProt P21399 1-889, looked up)
Cytoplasmic aconitate …: MSNPFAHLAEPLDPVQPGKKFFNLNKLEDSRYGRLPFSIRVLLEAAIRNCDEFLVKKQDIENILHWNVTQHKNIEVPFKPARVILQDFTGVPAVVDFAAMRDAVKKLGGDPEKINPVCPADLVIDHSIQVDFNRRADSLQKNQDLEFERNRERFEFLKWGSQAFHNMRIIPPGSGIIHQVNLEYLARVVFDQDGYYYPDSLVGTDSHTTMIDGLGILGWGVGGIEAEAVMLGQPISMVLPQVIGYRLMGKPHPLVTSTDIVLTITKHLRQVGVVGKFVEFFGPGVAQLSIADRATIANMCPEYGATAAFFPVDEVSITYLVQTGRDEEKLKYIKKYLQAVGMFRDFNDPSQDPDFTQVVELDLKTVVPCCSGPKRPQDKVAVSDMKKDFESCLGAKQGFKGFQVAPEHHNDHKTFIYDNTEFTLAHGSVVIAAITSCTNTSNPSVMLGAGLLAKKAVDAGLNVMPYIKTSLSPGSGVVTYYLQESGVMPYLSQLGFDVVGYGCMTCIGNSGPLPEPVVEAITQGDLVAVGVLSGNRNFEGRVHPNTRANYLASPPLVIAYAIAGTIRIDFEKEPLGVNAKGQQVFLKDIWPTRDEIQAVERQYVIPGMFKEVYQKIETVNESWNALATPSDKLFFWNSKSTYIKSPPFFENLTLDLQPPKSIVDAYVLLNLGDSVTTDHISPAGNIARNSPAARYLTNRGLTPREFNSYGSRRGNDAVMARGTFANIRLLNRFLNKQAPQTIHLPSGEILDVFDAAERYQQAGLPLIVLAGKEYGAGSSRDWAAKGPFLLGIKAVLAESYERIHRSNLVGMGVIPLEYLPGENADALGLTGQERYTIIIPENLKPQMKVQVKLDTGKTFQAVMRFDTDVELTYFLNGGILNYMIRKMAK
- Kd [4]: 0.02 to 0.05 nM
